Measurements taken from publication PMC6679423 (International Journal of Molecular Sciences, 2019).

Experiments:
[1] = molecular target: CYP enzymes in human liver microsomes (Homo sapiens, UniProt P08684); assay: Effects of inhibitors on N-desmethylvandetanib formation in human liver microsomes; conditions: inhibitor 50 μM equimolar to vandetanib (50 μM), 0.1 nmol microsomal CYP
Protocol: (§1) After the incubations, 5 µL of 1 mM phenacetine (dissolved in methanol) was added as internal standard. The reaction was stopped by extraction with dichlormethane (2 × 1 mL).
(§2) Inhibition studies in human liver microsomes were essentially conducted as reported previously.

[2] = molecular target: CYP enzymes in human liver microsomes (N-desmethylvandetanib formation) (Homo sapiens, UniProt P08684); assay: as above; conditions: human, pH 7.4
CYP enzymes in human liver microsomes (N-desmethylvandetanib formation), sequence (P08684 2-503): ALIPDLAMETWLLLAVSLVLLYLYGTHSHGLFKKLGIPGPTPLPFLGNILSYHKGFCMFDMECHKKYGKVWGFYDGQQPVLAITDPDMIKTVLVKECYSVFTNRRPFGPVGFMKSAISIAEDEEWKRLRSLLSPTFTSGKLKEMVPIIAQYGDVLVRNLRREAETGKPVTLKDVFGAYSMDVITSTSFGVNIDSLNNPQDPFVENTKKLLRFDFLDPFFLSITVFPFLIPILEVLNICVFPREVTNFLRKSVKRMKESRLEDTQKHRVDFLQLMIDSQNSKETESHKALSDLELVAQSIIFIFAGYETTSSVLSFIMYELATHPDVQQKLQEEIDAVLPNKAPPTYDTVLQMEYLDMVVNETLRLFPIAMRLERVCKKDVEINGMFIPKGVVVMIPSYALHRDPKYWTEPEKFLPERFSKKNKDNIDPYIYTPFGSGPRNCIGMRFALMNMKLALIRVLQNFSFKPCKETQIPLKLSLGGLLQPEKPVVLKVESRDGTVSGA
CYP enzymes in human liver microsomes (N-desmethylvandetanib formation), sequence (P16435 2-677, further chain): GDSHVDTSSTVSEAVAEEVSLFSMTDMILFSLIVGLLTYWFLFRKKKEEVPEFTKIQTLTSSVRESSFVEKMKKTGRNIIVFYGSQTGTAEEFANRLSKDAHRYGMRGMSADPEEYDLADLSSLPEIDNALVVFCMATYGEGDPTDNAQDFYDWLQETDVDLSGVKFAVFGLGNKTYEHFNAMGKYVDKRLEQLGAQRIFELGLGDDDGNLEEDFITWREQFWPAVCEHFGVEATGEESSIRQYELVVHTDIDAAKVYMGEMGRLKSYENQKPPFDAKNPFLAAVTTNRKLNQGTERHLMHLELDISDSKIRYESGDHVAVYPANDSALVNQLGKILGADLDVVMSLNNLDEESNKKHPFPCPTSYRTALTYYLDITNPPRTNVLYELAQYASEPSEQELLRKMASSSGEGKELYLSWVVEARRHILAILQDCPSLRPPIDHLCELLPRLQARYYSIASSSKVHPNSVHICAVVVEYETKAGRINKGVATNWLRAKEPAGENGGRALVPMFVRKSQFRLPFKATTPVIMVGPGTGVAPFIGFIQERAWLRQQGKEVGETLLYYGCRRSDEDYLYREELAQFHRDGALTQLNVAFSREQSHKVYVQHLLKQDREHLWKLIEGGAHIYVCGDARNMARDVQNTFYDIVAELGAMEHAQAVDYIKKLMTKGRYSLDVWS
Protocol: as §1, §2

[3] = molecular target: T1, FMO in human liver microsomes (Homo sapiens, UniProt P31513); assay: Effects of inhibitors on vandetanib-N-oxide formation in human liver microsomes; type: in vitro ADME; conditions: inhibitor 50 μM equimolar to vandetanib (50 μM), 0.25 mg microsomal protein
T1 sequence (P31513 2-532): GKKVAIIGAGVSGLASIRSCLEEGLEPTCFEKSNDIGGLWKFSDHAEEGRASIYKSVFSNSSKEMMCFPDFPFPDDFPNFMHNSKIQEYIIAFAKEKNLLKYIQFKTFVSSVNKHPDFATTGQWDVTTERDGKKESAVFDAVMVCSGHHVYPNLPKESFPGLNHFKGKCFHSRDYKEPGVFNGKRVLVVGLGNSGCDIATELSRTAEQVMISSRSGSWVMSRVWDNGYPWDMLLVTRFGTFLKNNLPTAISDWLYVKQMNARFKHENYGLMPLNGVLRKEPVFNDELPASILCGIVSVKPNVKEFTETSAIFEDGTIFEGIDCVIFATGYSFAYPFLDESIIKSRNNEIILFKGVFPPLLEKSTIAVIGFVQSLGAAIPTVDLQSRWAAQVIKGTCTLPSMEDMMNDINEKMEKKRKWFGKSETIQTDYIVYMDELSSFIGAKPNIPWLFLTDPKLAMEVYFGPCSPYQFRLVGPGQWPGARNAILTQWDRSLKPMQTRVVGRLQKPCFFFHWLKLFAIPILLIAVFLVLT

CYP enzymes in human liver microsomes, sequence (P08684 2-503): as the sequence (P08684 2-503) above
CYP enzymes in human liver microsomes, sequence (P16435 2-677, further chain): as the sequence (P16435 2-677, further chain) above

Compound: CCN(CC)C(=S)S [DDTC, diethyldithiocarbamate]
- % of Inhibition, N-Desmethyvandetanib Formation [1]: no inhibitory effects
- inhibition at 20 min, 50 µM [2]: 0%
- % of Inhibition, Vandetanib-N-oxide Formation [3]: no inhibition

Compound: C1C2CC3C4CC5CC(C14)C(C2)C3C5 [Diamantane, diamantane]
- % of Inhibition, N-Desmethyvandetanib Formation [1]: 0%
- % of Inhibition, N-Desmethyvandetanib Formation ([1]; listed as diamantane): no inhibitory effects

Compound: Nc1ccc(S(=O)(=O)Nc2ccnn2-c2ccccc2)cc1 [Sulfaphenazole, sulfaphenazole]
- inhibition at 20 min, 50 µM [2]: 38 ± 4%
- inhibition at 20 min, 500 µM [2]: < 50%
